# From patent US20250079000A1, “METHODS AND MARKERS FOR DIAGNOSIS OF PARKINSON'S DISEASE” (Berg LLC, priority 2021, published 2025)
# How the values were obtained:
# [1] = Short-term and long-term stability of NAP spiked in 2.5% BSA standard solution; format: physicochemical; conditions: for Bias %, long-term stability: LTS (88 days, −80 C.); for Bias %, short-term stability: STS (24 hrs, 5 C.)
# Description: (§1) Detection and Quantitation of NAP using LC-MS/MS. To quantify NAP in human K2-EDTA plasma, the quantification method using LC-MS/MS was developed. Due to low circulating levels of NAP, the sensitivity of quantification was improved using derivatization of isobutyl chloroformate in the sample preparation. The validation performance of the NAP assay is summarized in Table 8-15, including linearity, precision, matrix effect, system suitability, short-term stability, long-term stability, and reproducibility in the autosampler. […] The results of validation assessed by QCs met acceptance criteria (Table 9-15).
# [2] = Stability of NAP spiked in human plasma (short-term, long-term, freeze-thaw, re-injection); format: in vitro ADME
# Description: as §1
# [3] = NCAM short-term stability in plasma QC samples; format: in vitro ADME, human; conditions: HQC, MQC, LQC; 4° C. and 24° C.; 2, 4 and 24 hours; acceptance criteria −25% to 25%
# Procedure: In the short-term stability test, three levels of QC samples were thawed from the −80° C. freezer and incubated at 4° C. or RT (18-24° C.) for 2, 4 or 24 h. The samples were then assayed and compared with samples freshly thawed from the −80° C. freezer and assayed along with the samples incubated at different conditions on the day of the assay.
# Precision analyses were performed at high, medium and low concentrations (HQC, MQC, and LQC, respectively). For each concentration, twelve experiments were performed. […] Accuracy analyses were performed at two concentrations of NCAM: 10,000 pg/mL and 2,000 pg/mL. Five experiments were performed at each concentration. Recovery percentages for all experiments at both concentrations (FIG. 28C) were within the acceptance criteria of greater than or equal to 80% and less than or equal to 120%. Parallelism analyses were performed using six individual plasma samples at four dilutions. Recovery percentages (FIG. 28D) were within the acceptance criteria of greater than or equal to 75% and less than or equal to 125% for all samples tested at each of the four dilutions. Short-term stability analyses were performed at two temperatures: 4° C. and 24° C. For each temperature, high, medium and low concentration samples (HQC, MQC, and LQC, respectively) were maintained at 2 hours, 4 hours, and 24 hours.
# [4] = HQC, expected value 54.2 ng/mL, acceptable range 27.8-80.7
# [5] = LQC, expected value 3.2 ng/mL, acceptable range 2.33-4.03
"Bias %, long-term stability ([1]; L1, 1.0 ng/mL) [%]","Bias %, long-term stability ([1]; L8, 85.0 ng/mL) [%]","Bias %, short-term stability ([1]; L1, 1.0 ng/mL) [%]","Bias %, short-term stability ([1]; substock, 2000 ng/mL) [%]","Mean concentration, freeze-thaw stability (4x) [2, 4] [ng/mL]","Mean concentration, long-term stability (84 days, −80° C.) [2, 4] [ng/mL]","Mean concentration, re-injection stability in autosampler (8 days) [2, 4] [ng/mL]","Mean concentration, short-term stability (24 h, RT) [2, 4] [ng/mL]","Mean concentration, freeze-thaw stability (4x) [2, 5] [ng/mL]","Mean concentration, long-term stability (84 days, −80° C.) [2, 5] [ng/mL]","Mean concentration, re-injection stability in autosampler (8 days) [2, 5] [ng/mL]","Mean concentration, short-term stability (24 h, RT) [2, 5] [ng/mL]",Compound,Short-term stability of plasma samples [3]
10.6,−8.1,−3.6,−6.7,42.4,63.4,46.5,41.0,3.1,3.2,3.2,3.1,"CC(=O)NCCCCN [NAP, N-acetyl putrescine]",–
–,–,–,–,–,–,–,–,–,–,–,–,"P13591 (NCAM): Neural Cell Adhesion Molecule 1, cell adhesion protein, Uniprot P13591",within acceptance criteria
